Counter-ions that a name gives are not always drawn.

The target in this assay is HDAC6 (Homo sapiens (Human), UniProt Q9UBN7). The assay can be described thus: HDAC6 in vitro enzymatic assay (fluorescence). It counts as biochemical. The following applies: Table 3; read-out: IC50 (nM) for inhibition of HDAC6. The method, then: Biological Tests Method for Measurement of Enzymatic Activity of HDACs Materials & Methods
Chain of HDAC6 (Q9UBN7 whole entry): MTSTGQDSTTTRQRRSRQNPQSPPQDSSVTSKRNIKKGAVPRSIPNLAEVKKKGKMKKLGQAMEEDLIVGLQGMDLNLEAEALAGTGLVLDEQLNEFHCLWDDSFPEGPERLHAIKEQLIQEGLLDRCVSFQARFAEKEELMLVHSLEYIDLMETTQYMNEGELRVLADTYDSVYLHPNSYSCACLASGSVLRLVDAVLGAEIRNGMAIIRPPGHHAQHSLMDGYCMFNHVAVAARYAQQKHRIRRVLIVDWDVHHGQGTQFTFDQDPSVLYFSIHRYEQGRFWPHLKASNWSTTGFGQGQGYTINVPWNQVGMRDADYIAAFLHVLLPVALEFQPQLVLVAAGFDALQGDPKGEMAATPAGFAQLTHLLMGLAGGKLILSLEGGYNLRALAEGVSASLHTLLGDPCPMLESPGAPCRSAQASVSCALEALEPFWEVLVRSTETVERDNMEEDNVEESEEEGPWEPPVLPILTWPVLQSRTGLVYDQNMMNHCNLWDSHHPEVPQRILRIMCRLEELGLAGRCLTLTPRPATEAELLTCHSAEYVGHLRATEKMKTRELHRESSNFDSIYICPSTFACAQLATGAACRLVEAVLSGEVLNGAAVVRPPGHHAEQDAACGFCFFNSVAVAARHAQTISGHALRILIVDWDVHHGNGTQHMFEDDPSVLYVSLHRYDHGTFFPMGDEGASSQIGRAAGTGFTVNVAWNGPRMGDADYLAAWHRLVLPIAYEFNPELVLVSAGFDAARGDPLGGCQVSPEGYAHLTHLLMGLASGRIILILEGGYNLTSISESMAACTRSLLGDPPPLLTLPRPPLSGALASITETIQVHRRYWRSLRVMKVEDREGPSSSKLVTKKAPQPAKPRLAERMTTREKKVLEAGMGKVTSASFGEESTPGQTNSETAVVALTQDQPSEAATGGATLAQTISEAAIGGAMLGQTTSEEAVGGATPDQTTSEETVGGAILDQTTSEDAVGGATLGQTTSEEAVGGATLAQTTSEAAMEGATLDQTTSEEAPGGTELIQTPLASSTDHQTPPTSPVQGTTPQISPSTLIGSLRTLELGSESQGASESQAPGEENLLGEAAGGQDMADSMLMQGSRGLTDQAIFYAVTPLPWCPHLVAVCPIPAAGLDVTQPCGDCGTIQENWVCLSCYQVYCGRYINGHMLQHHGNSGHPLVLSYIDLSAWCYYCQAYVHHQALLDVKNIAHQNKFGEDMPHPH
All Examples were tested in HDAC1,2,3,6 and 8 in vitro enzymatic assays. The assay principle is well known (Hauser et al. 2009, Bradner et al. 2010) and all necessary reagents like enzymes, substrates, developer and reference compounds are commercially available (see e.g. BPS Biosciences http://www.bpsbioscience.com/). Stock solutions (10 mM in DMSO) of compounds were serially diluted 1:3 in 11 concentrations with a top concentration of 200 μM for HDAC1,2,3 and 2 μM for HDAC6 and HDAC8. The enzymatic reactions were conducted in a mixture containing assay buffer, bovine serum albumin, HDAC substrate, and a test compound. After enzymatic reaction, developer was added and after an additional incubation time, fluorescence intensity was measured at an excitation wavelength of 360 nm and an emission wavelength of 460 nm. All experiments were performed in duplicate.
Regarding `CC(C)c1ccc(-c2cc3cc(C(=O)NO)ccc3[nH]2)cc1` [Example 60, N-Hydroxy-2-[4-(1-methylethyl)phenyl]-1H-indole-5-carboxamide], the IC50 (usually the midpoint of a concentration-inhibition curve) worked out at 62 nM.

Turning to `Cn1cc(-c2cc3cc(C(=O)NO)ccc3s2)cn1` [Example 99, N-hydroxy-2-(1-methyl-1H-pyrazol-4-yl)-1-benzothiophene-5-carboxamide], the IC50 stood at 16 nM.

For the compound `O=C(NO)c1ccc2oc(-c3ccc(-c4ccccc4)nc3)nc2c1` [Example 161, N-Hydroxy-2-(6-phenylpyridin-3-yl)-1,3-benzoxazole-5-carboxamide trifluoroacetate], the half-inhibitory concentration (IC50) was 22 nM.

As for `O=C(NO)c1ccc2cc(CO)oc2c1` [Example 119, N-hydroxy-2-(hydroxymethyl)-1-benzofuran-6-carboxamide], the IC50 amounted to 74 nM.

For the compound `O=C(NO)c1ccc2oc(NC3CCCCCCC3)nc2c1` [Example 232, 2-(cyclooctylamino)-N-hydroxy-1,3-benzoxazole-5-carboxamide], the IC50 came to 51 nM.

As to `Cn1c(Nc2cccc(-c3ccccc3)c2)nc2cc(C(=O)NO)ccc21` [Example 144, 2-([1,1′-biphenyl]-3-ylamino)-N-hydroxy-1-methyl-1H-benzo[d]imidazole-5-carboxamide], the IC50 stood at 7 nM.

In the case of `COc1ccc(-c2cc3cc(C(=O)NO)ccc3o2)cn1` [Example 278, N-hydroxy-2-(6-methoxypyridin-3-yl)-1-benzofuran-5-carboxamide], the IC50 was found to be 96 nM.

`O=C(NO)c1ccc2cc(-c3ccoc3)sc2c1` [Example 149, 2-furan-3-yl-N-hydroxy-1-benzothiophene-6-carboxamide]: the IC50 was found to be 49 nM.

For `CN(C)C(=O)c1ccc(-c2cc3cc(C(=O)NO)ccc3s2)cc1` [Example 108, 2-[4-(dimethylcarbamoyl)phenyl]-N-hydroxy-1-benzothiophene-5-carboxamide], the half-inhibitory concentration (IC50) amounted to 35 nM.

With `COc1ccc(-c2cc3cc(C(=O)NO)ccc3s2)cc1` [Example 93, N-hydroxy-2-(4-methoxyphenyl)-1-benzothiophene-5-carboxamide], the half-inhibitory concentration (IC50) stood at 9 nM.

For `O=C(NO)c1ccc2nc(NCc3ccccc3)[nH]c2c1` [Example 127, 2-(benzylamino)-N-hydroxy-1H-benzo[d]imidazole-6-carboxamide], the IC50 was found to be 60 nM.

Regarding `Cn1c(N(Cc2ccccc2)c2ccccc2)nc2cc(C(=O)NO)ccc21` [Example 141, 2-(benzyl(phenyl)amino)-N-hydroxy-1-methyl-1H-benzo[d]imidazole-5-carboxamide], the half-maximal inhibitory concentration (IC50) is 22 nM.

Regarding `O=C(NO)c1ccc2sc(CO)nc2c1` [Example 271, N-Hydroxy-2-(hydroxymethyl)-1,3-benzothiazole-5-carboxamide], the IC50 stood at 37 nM.

With `Cn1c(Nc2cccc(OCc3ccccc3)c2)nc2cc(C(=O)NO)ccc21` [Example 142, 2-((3-(benzyloxy)phenyl)amino)-N-hydroxy-1-methyl-1H-benzo[d]imidazole-5-carboxamide], the half-maximal inhibitory concentration (IC50) was determined as 1 nM.

With `O=C(NO)c1ccc2nc(-c3ccc(F)cc3)oc2c1` [Example 50, 2-(4-Fluorophenyl)-N-hydroxy-1,3-benzoxazole-6-carboxamide], the IC50 was 34 nM.

For the compound `O=C(NO)c1ccc2sc(Cc3ccc(F)cc3)nc2c1` [Example 79, 2-(4-fluorobenzyl)-N-hydroxy-1,3-benzothiazole-5-carboxamide], the IC50 came to 7 nM.

As to `O=C(NO)c1ccc2oc(-c3ccccc3CO)cc2c1` [Example 281, N-hydroxy-2-[2-(hydroxymethyl)phenyl]-1-benzofuran-5-carboxamide], the IC50 stood at 92 nM.

`Cn1c(Nc2ccccc2)nc2cc(C(=O)NO)ccc21` [Example 137, N-Hydroxy-1-methyl-2-(phenylamino)-1H-benzimidazole-5-carboxamide]: the concentration for half-maximal inhibition (IC50) was 39 nM.

Take `O=C(NO)c1ccc2nc(-c3ccc(-c4cccnc4)nc3)oc2c1` [Example 55, 2-(2,3′-Bipyridin-5-yl)-N-hydroxy-1,3-benzoxazole-6-carboxamide trifluoroacetate]: the IC50 was found to be 81 nM.

Turning to `O=C(NO)c1ccc2oc(-c3ccc4c(c3)OCO4)nc2c1` [Example 8, 2-(1,3-benzodioxo1-5-yl)-N-hydroxy-1,3-benzoxazole-5-carboxamide], the concentration for half-maximal inhibition (IC50) worked out at 14 nM.

For the compound `O=C(NO)c1ccc2cc(-c3ccccc3)oc2c1` [Example 282, N-Hydroxy-2-phenyl-1-benzofuran-6-carboxamide], the IC50 is 9 nM.

In the case of `O=C(NO)c1ccc2oc(-c3ccccc3)nc2c1` [Example 7, N-hydroxy-2-phenyl-1,3-benzoxazole-5-carboxamide], the IC50 came to 15 nM.

For `O=C(NO)c1ccc2nc(-c3ccc4[nH]nnc4c3)oc2c1` [Example 54, 2-(1H-Benzotriazol-5-yl)-N-hydroxy-1,3-benzoxazole-6-carboxamide], the concentration for half-maximal inhibition (IC50) was 60 nM.

For `O=C(NO)c1ccc2oc(-c3ccc(-c4cccnc4)cc3)nc2c1` [Example 23, N-hydroxy-2-(4-pyridin-3-ylphenyl)-1,3-benzoxazole-5-carboxamide], the 50% inhibitory concentration (IC50) was 11 nM.

For `O=C(NO)c1ccc2oc(N3CCC(Cc4ccccc4)CC3)nc2c1` [Example 48, 2-(4-benzylpiperidin-1-yl)-N-hydroxy-1,3-benzoxazole-5-carboxamide], the IC50 amounted to 73 nM.

Regarding `O=C(NO)c1ccc2oc(NCCc3ccccc3)nc2c1` [Example 45, N-hydroxy-2-[(2-phenylethyl)amino]-1,3-benzoxazole-5-carboxamide], the concentration for half-maximal inhibition (IC50) stood at 21 nM.

As for `O=C(NO)c1ccc2oc(-c3ccc4[nH]nnc4c3)nc2c1` [Example 39, 2-(1H-Benzotriazol-5-yl)-N-hydroxy-1,3-benzoxazole-5-carboxamide], the IC50 was determined as 26 nM.

For `O=C(NO)c1ccc2oc(Nc3cccc(OCc4ccccc4)c3)nc2c1` [Example 47, 2-{[3-(benzyloxy)phenyl]amino}-N-hydroxy-1,3-benzoxazole-5-carboxamide], the half-inhibitory concentration (IC50) was determined as 31 nM.

Consider `CC(C)c1ccc(NCc2nc3cc(C(=O)NO)ccc3s2)cc1` [Example 275, N-Hydroxy-2-({[4-(1-methylethyl)phenyl]amino}methyl)-1,3-benzothiazole-5-carboxamide], for which the IC50 came out at 8 nM.

Take `O=C(NO)c1ccc2oc(N3CCc4ccccc4C3)nc2c1` [Example 46, 2-(3,4-dihydroisoquinolin-2(1H)-yl)-N-hydroxy-1,3-benzoxazole-5-carboxamide]: the IC50 stood at 48 nM.

Take `COc1ccc(-c2nc3cc(C(=O)NO)ccc3o2)cc1` [Example 11, N-hydroxy-2-(4-methoxyphenyl)-1,3-benzoxazole-5-carboxamide]: the half-maximal inhibitory concentration (IC50) is 8 nM.

As for `O=C(NO)c1ccc2oc(-c3cccc(Br)c3)nc2c1` [Example 16, 2-(3-bromophenyl)-N-hydroxy-1,3-benzoxazole-5-carboxamide], the IC50 turned out to be 7 nM.

Regarding `O=C(NO)c1ccc2oc(N(Cc3ccccc3)c3ccccc3)nc2c1` [Example 241, 2-[benzyl(phenyl)amino]-N-hydroxy-1,3-benzoxazole-5-carboxamide], the concentration for half-maximal inhibition (IC50) was found to be 27 nM.

Take `O=C(NO)c1ccc2oc(-c3ccc4c(c3)OCCO4)nc2c1` [Example 219, 2-(2,3-Dihydro-1,4-benzodioxin-6-yl)-N-hydroxy-1,3-benzoxazole-5-carboxamide]: the IC50 is 44 nM.

Turning to `COc1ccc(F)cc1-c1cc2cc(C(=O)NO)ccc2s1` [Example 106, 2-(5-fluoro-2-methoxyphenyl)-N-hydroxy-1-benzothiophene-5-carboxyamide], the concentration for half-maximal inhibition (IC50) came to 86 nM.

`O=C(NO)c1ccc2sc(COCc3ccccc3)nc2c1` [Example 270, 2-[(Benzyloxy)methyl]-N-hydroxy-1,3-benzothiazole-5-carboxamide]: the IC50 is 4 nM.

For `CCN(CC)c1ccc(-c2nc3cc(C(=O)NO)ccc3o2)cc1` [Example 33, 2-[4-(Diethylamino)phenyl]-N-hydroxy-1,3-benzoxazole-5-carboxamide trifluoroacetate], the IC50 amounted to 22 nM.

Regarding `COCCN(C)Cc1cccc(-c2nc3cc(C(=O)NO)ccc3o2)c1` [Example 205, N-hydroxy-2-(3-{[(2-methoxy-ethyl)(methyl)amino]methyl}phenyl)-1,3-benzoxazole-5-carboxamide trifluoroacetate], the IC50 is 64 nM.

Regarding `CN(C)Cc1ccc(-c2cc3ccc(C(=O)NO)cc3o2)cc1` [Example 283, 2-{4-[(dimethylamino)methyl]phenyl}-N-hydroxy-1-benzofuran-6-carboxamide trifluoroacetate], the 50% inhibitory concentration (IC50) came out at 7 nM.

For the compound `O=C(NO)c1ccc2oc(-c3ccc(Br)cc3)nc2c1` [Example 2, 2-(4-bromophenyl)-N-hydroxy-1,3-benzoxazole-5-carboxamide], the IC50 stood at 4 nM.

Take `O=C(NO)c1ccc2oc(-c3ccc(N4CCCC4)nc3)nc2c1` [Example 41, N-Hydroxy-2-(6-pyrrolidin-1-ylpyridin-3-yl)-1,3-benzoxazole-5-carboxamide trifluoroacetate]: the IC50 is 22 nM.

With `O=C(NO)c1ccc2oc(NCc3ccc(-c4ccccc4)cc3)nc2c1` [Example 234, 2-[(biphenyl-4-ylmethyl)amino]-N-hydroxy-1,3-benzoxazole-5-carboxamide], the IC50 was 4 nM.

In the case of `CC(C)c1ccc(-c2cc3cc(C(=O)NO)cnc3[nH]2)cc1` [Example 84, N-Hydroxy-2-[4-(1-methylethyl)phenyl]-1H-pyrrolo[2,3-b]pyridine-5-carboxamide], the IC50 is 19 nM.

Source of the values: patent US10654814B2, “Bicyclic hydroxamic acids useful as inhibitors of mammalian histone deacetylase activity” (KANCERA AB, priority 2015, dated 2020).
